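Method: 48-hour compound exposure of cells in 96-well plates, five concentrations, linear interpolation of endpoints. GI50 is the concentration that inhibits growth by half.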 The source made the active and inactive calls. Cut-off read from the data, not from the text of the source: active = GI50 up to about 1.1 µM and inactive = higher.
Columns and labels:
Experiment in all cases: NCI anticancer screen, dose series, 48 h
MDA-MB-435 = test system: MDA-MB-435
SK-OV-3 = test system: SK-OV-3
SF-295 = test system: SF-295
PC-3 = test system: PC-3
Malme-3M = test system: Malme-3M
NCI/ADR-RES = test system: NCI/ADR-RES
SR = test system: SR
786-0 = test system: 786-0
U-251 = test system: U-251
HT-29 = test system: HT-29
UACC-62 = test system: UACC-62
UACC-257 = test system: UACC-257
SK-MEL-28 = test system: SK-MEL-28
MCF7 = test system: MCF7
SK-MEL-5 = test system: SK-MEL-5
RPMI-8226 = test system: RPMI-8226
UO-31 = test system: UO-31
T47D = test system: T47D
EKVX = test system: EKVX
SF-539 = test system: SF-539
HCT-116 = test system: HCT-116
COLO 205 = test system: COLO 205
MDA-N = test system: MDA-N
OVCAR-3 = test system: OVCAR-3
OVCAR-8 = test system: OVCAR-8
HCC 2998 = test system: HCC 2998
SK-MEL-2 = test system: SK-MEL-2
CCRF-CEM = test system: CCRF-CEM
HL-60 = test system: HL-60
A549 = test system: A549
ACHN = test system: ACHN
SF-268 = test system: SF-268
SW-620 = test system: SW-620
OVCAR-5 = test system: OVCAR-5
NCI-H460 = test system: NCI-H460
K562 = test system: K562
A498 = test system: A498
MOLT-4 = test system: MOLT-4
DU-145 = test system: DU-145
HCT-15 = test system: HCT-15
M14 = test system: M14
HOP-62 = test system: HOP-62
CAKI-1 = test system: CAKI-1
IGROV-1 = test system: IGROV-1
LOX IMVI = test system: LOX IMVI
NCI-H522 = test system: NCI-H522
KM12 = test system: KM12
SNB-19 = test system: SNB-19
NCI-H23 = test system: NCI-H23
BT-549 = test system: BT-549
OVCAR-4 = test system: OVCAR-4
SN12C = test system: SN12C
TK-10 = test system: TK-10
MDA-MB-231 = test system: MDA-MB-231
NCI-H226 = test system: NCI-H226

Nn1c(=S)[nH]nc(/C=C/c2c(O)ccc3ccccc23)c1=O
GI50 (MDA-MB-435): 13.2 µM (inactive) | GI50 (SK-OV-3): 11 µM (inactive) | GI50 (SF-295): 8.85 µM (inactive) | GI50 (PC-3): 11.1 µM (inactive) | GI50 (Malme-3M): 12.2 µM (inactive) | GI50 (NCI/ADR-RES): 3.26 µM (inactive) | GI50 (SR): 4.67 µM (inactive) | GI50 (786-0): 5.46 µM (inactive) | GI50 (U-251): 8.22 µM (inactive) | GI50 (HT-29): 4.03 µM (inactive) | GI50 (UACC-62): 4.88 µM (inactive) | GI50 (UACC-257): 5.3 µM (inactive) | GI50 (SK-MEL-28): 8.95 µM (inactive) | GI50 (MCF7): 2.72 µM (inactive) | GI50 (SK-MEL-5): 10.2 µM (inactive) | GI50 (RPMI-8226): 28.6 µM (inactive) | GI50 (UO-31): 6.35 µM (inactive) | GI50 (T47D): 3.97 µM (inactive) | GI50 (EKVX): 2.75 µM (inactive) | GI50 (SF-539): 19.3 µM (inactive) | GI50 (HCT-116): 3.32 µM (inactive) | GI50 (COLO 205): 7.18 µM (inactive) | GI50 (MDA-N): 12.3 µM (inactive) | GI50 (OVCAR-3): 3.13 µM (inactive) | GI50 (OVCAR-8): 1.78 µM (inactive) | GI50 (HCC 2998): 7.5 µM (inactive) | GI50 (SK-MEL-2): 13.3 µM (inactive) | GI50 (CCRF-CEM): 1.92 µM (inactive) | GI50 (HL-60): 0.203 µM (active) | GI50 (A549): 6.78 µM (inactive) | GI50 (ACHN): 4.93 µM (inactive) | GI50 (SF-268): 2.96 µM (inactive) | GI50 (SW-620): 4.74 µM (inactive) | GI50 (OVCAR-5): 7.08 µM (inactive) | GI50 (NCI-H460): 4.58 µM (inactive) | GI50 (K562): 5.27 µM (inactive) | GI50 (A498): 16.9 µM (inactive) | GI50 (MOLT-4): 4.29 µM (inactive) | GI50 (DU-145): 12.1 µM (inactive) | GI50 (HCT-15): 3.13 µM | GI50 (M14): 5.71 µM (inactive) | GI50 (HOP-62): 11.6 µM (inactive) | GI50 (CAKI-1): 5.55 µM (inactive) | GI50 (IGROV-1): 1.64 µM (inactive) | GI50 (LOX IMVI): 2.48 µM (inactive) | GI50 (NCI-H522): 3.32 µM (inactive) | GI50 (KM12): 6.12 µM (inactive) | GI50 (SNB-19): 21.8 µM (inactive) | GI50 (NCI-H23): 3.24 µM (inactive) | GI50 (BT-549): 5.43 µM (inactive) | GI50 (OVCAR-4): 4.06 µM (inactive)

c1cc2c(s1)-c1sccc1C21OCCO1
GI50 (MDA-MB-435): > 100 µM (inactive) | GI50 (SF-295): > 100 µM (inactive) | GI50 (Malme-3M): 67.1 µM (inactive) | GI50 (NCI/ADR-RES): > 100 µM (inactive) | GI50 (SR): > 100 µM (inactive) | GI50 (SN12C): > 100 µM (inactive) | GI50 (786-0): > 100 µM (inactive) | GI50 (TK-10): > 100 µM (inactive) | GI50 (U-251): > 100 µM (inactive) | GI50 (HT-29): 97.7 µM (inactive) | GI50 (UACC-62): 19.5 µM (inactive) | GI50 (UACC-257): 45.6 µM (inactive) | GI50 (MDA-MB-231): > 100 µM (inactive) | GI50 (SK-MEL-28): > 100 µM (inactive) | GI50 (MCF7): 49.9 µM (inactive) | GI50 (SK-MEL-5): 53.5 µM (inactive) | GI50 (RPMI-8226): 81.7 µM (inactive) | GI50 (UO-31): > 100 µM (inactive) | GI50 (T47D): 17.3 µM (inactive) | GI50 (EKVX): > 100 µM (inactive) | GI50 (SF-539): > 100 µM (inactive) | GI50 (HCT-116): 58.9 µM (inactive) | GI50 (COLO 205): > 100 µM (inactive) | GI50 (MDA-N): > 100 µM (inactive) | GI50 (OVCAR-3): > 100 µM (inactive) | GI50 (OVCAR-8): > 100 µM (inactive) | GI50 (HCC 2998): > 100 µM (inactive) | GI50 (SK-MEL-2): 60 µM (inactive) | GI50 (CCRF-CEM): > 100 µM (inactive) | GI50 (HL-60): > 100 µM (inactive) | GI50 (A549): 69 µM (inactive) | GI50 (ACHN): > 100 µM (inactive) | GI50 (SF-268): 18.7 µM (inactive) | GI50 (OVCAR-5): > 100 µM (inactive) | GI50 (NCI-H460): > 100 µM (inactive) | GI50 (K562): > 100 µM (inactive) | GI50 (MOLT-4): > 100 µM (inactive) | GI50 (DU-145): > 100 µM (inactive) | GI50 (HCT-15): 76.2 µM | GI50 (M14): > 100 µM (inactive) | GI50 (HOP-62): > 100 µM (inactive) | GI50 (CAKI-1): > 100 µM (inactive) | GI50 (LOX IMVI): > 100 µM (inactive) | GI50 (NCI-H522): 82.8 µM (inactive) | GI50 (KM12): > 100 µM (inactive) | GI50 (SNB-19): > 100 µM (inactive) | GI50 (NCI-H23): > 100 µM (inactive) | GI50 (BT-549): 50.5 µM (inactive) | GI50 (NCI-H226): > 100 µM (inactive) | GI50 (OVCAR-4): > 100 µM (inactive)
